According to patent US12318452B2, “Degraders of WEE1 kinase” (DANA-FARBER CANCER INSTITUTE, INC., priority 2018, dated 2025):

Tested on: BT549 and HCC1806 cells
Test: Image-based cell cycle assay in TNBC cell lines
Conditions: data not shown
Experimental: HCC1806, BT549, and Kuramochi cells were maintained in RPMI (Corning®, Corning, NY) supplemented with 10% fetal bovine serum (FBS) (Life Technologies™, Carlsbad, CA) and 1% penicillin/streptomycin (Corning, Corning®, NY). OVCAR8 cells were maintained as above with the addition of 2 mM L-glutamine (Life Technologies™, Carlsbad, CA). MCF10A cells were maintained in a 1:1 mix of DMEM:F12 supplemented with 5% horse serum (Life Technologies™ Carlsbad, CA), 1% penicillin/streptomycin (Corning®, Corning, NY), 20 ng/ml EGF (Peprotech®, Rocky Hill, NJ), 500 ng/ml hydrocortisone (Sigma-Aldrich®, St. Louis, MO), 10 μg/ml insulin (Sigma-Aldrich®, St. Louis, MO), and 100 ng/ml cholera toxin (Sigma-Aldrich®, St. Louis, MO). COV362 cells were maintained in DMEM (Corning®, Corning, NY) supplemented with 10% FBS (Life Technologies™, Carlsbad, CA), 1% penicillin/streptomycin (Corning®, Corning, NY) and 2 mM L-glutamine (Life Technologies™, Carlsbad, CA). The OCE1 cells were maintained in FOMI (Wit-Fo) (PMID: 24303006) supplemented with 25 ng/ml cholera toxin (Sigma-Aldrich®, St. Louis, MO). […]
Fixed cells were imaged with a 10× objective using an Operetta microscope and analyzed using the Columbus image data storage and analysis system (PerkinElmer®, Waltham, MA). […] The average LDR, EdU and phospho-histone H3 intensities within the nuclear masks were determined. […]

C=CCn1c(=O)c2cnc(Nc3ccc(N4CCN(CCCNc5cccc6c5C(=O)N(C5CCC(=O)NC5=O)C6=O)CC4)cc3)nc2n1-c1cccc(C(C)(C)O)n1 (stereo not shown) [Compound 13, 4-((3-(4-(4-((2-allyl-1-(6-(2-hydroxypropan-2-yl)pyridin-2-yl)-3-oxo-2,3-dihydro-1H-pyrazolo[3,4-d]pyrimidin-6-yl)amino)phenyl)piperazin-1-yl)propyl)amino)-2-(2,6-dioxopiperidin-3-yl)isoindoline-1,3-dione] was tested, and the “Changes in mitotic cell number” value was “greater changes in mitotic cell number than AZD1775”.
